Test results from patent US10206394B2, “Herbicidal compounds” (Syngenta Participations AG, priority 2014, dated 2019).
Read-outs that look alike come from different tables or passages of the source.

What was measured:
Experiment in all cases: Glasshouse assay for herbicidal activity (pre- and post-emergence), percentage phytotoxicity
Assay type in all cases: in vivo
Avena fatua (AVEFA) = conditions: Avena fatua
How it was run: (§1)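 Sow seed in standard soil in pots; apply test herbicide after 1 day (PRE) or about 12 days (POST). Grow on in the glasshouse, watering twice daily, cool-season species at 20/16 °C and warm-season at 24/18 °C. Score visible damage (0–100%) at 20 or 15 DAA respectively.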

[1] = test system: Alopecurus myosuroides (ALOMY); conditions: Alopecurus myosuroides
How it was run: as §1

Lolium perenne (LOLPE) = conditions: Lolium perenne
How it was run: as §1

[2] = test system: Echinochloa crus-galli (ECHCG); conditions: Echinochloa crus-galli
How it was run: as §1

[3] = post-emergence, 360 h, POST-emergence, rate 250 g/ha, visual score 15 DAA (100%=total damage, 0%=no damage), read-out: Post-emergence herbicidal activity (percentage phytotoxicity) AVEFA POST
[4] = pre-emergence, 480 h, PRE-emergence, rate 250 g/ha, visual score 20 DAA (100%=total damage, 0%=no damage), read-out: Pre-emergence herbicidal activity (percentage phytotoxicity) AVEFA PRE
[5] = post-emergence, 360 h, POST-emergence, rate 250 g/ha, visual score 15 DAA (100%=total damage, 0%=no damage), read-out: Post-emergence herbicidal activity (percentage phytotoxicity) ALOMY POST
[6] = pre-emergence, 480 h, PRE-emergence, rate 250 g/ha, visual score 20 DAA (100%=total damage, 0%=no damage), read-out: Pre-emergence herbicidal activity (percentage phytotoxicity) ALOMY PRE
[7] = post-emergence, 360 h, POST-emergence, rate 250 g/ha, visual score 15 DAA (100%=total damage, 0%=no damage), read-out: Post-emergence herbicidal activity (percentage phytotoxicity) LOLPE POST
[8] = pre-emergence, 480 h, PRE-emergence, rate 250 g/ha, visual score 20 DAA (100%=total damage, 0%=no damage), read-out: Pre-emergence herbicidal activity (percentage phytotoxicity) LOLPE PRE
[9] = post-emergence, 360 h, POST-emergence, rate 250 g/ha, visual score 15 DAA (100%=total damage, 0%=no damage), read-out: Post-emergence herbicidal activity (percentage phytotoxicity) ECHCG POST
[10] = pre-emergence, 480 h, PRE-emergence, rate 250 g/ha, visual score 20 DAA (100%=total damage, 0%=no damage), read-out: Pre-emergence herbicidal activity (percentage phytotoxicity) ECHCG PRE
[11] = post-emergence, 360 h, Rate 250 g/ha, post-emergence, assessed visually 15 DAA, 100%=total damage, 0%=no damage, read-out: Post-emergence herbicidal activity (percentage phytotoxicity) AVEFA POST
[12] = post-emergence, 360 h, Rate 250 g/ha, post-emergence, assessed visually 15 DAA, 100%=total damage, 0%=no damage, read-out: Post-emergence herbicidal activity (percentage phytotoxicity) ALOMY POST
[13] = post-emergence, 360 h, Rate 250 g/ha, post-emergence, assessed visually 15 DAA, 100%=total damage, 0%=no damage, read-out: Post-emergence herbicidal activity (percentage phytotoxicity) LOLPE POST
[14] = post-emergence, 360 h, Rate 250 g/ha, post-emergence, assessed visually 15 DAA, 100%=total damage, 0%=no damage, read-out: Post-emergence herbicidal activity (percentage phytotoxicity) ECHCG POST
[15] = post-emergence, 360 h, 250 g/ha, post-emergence, 15 DAA, visual assessment (100%=total damage, 0%=no damage), read-out: Post-emergence herbicidal activity (percentage phytotoxicity) AVEFA POST
[16] = pre-emergence, 480 h, 250 g/ha, pre-emergence, 20 DAA, visual assessment (100%=total damage, 0%=no damage), read-out: Pre-emergence herbicidal activity (percentage phytotoxicity) AVEFA PRE
[17] = post-emergence, 360 h, 250 g/ha, post-emergence, 15 DAA, visual assessment (100%=total damage, 0%=no damage), read-out: Post-emergence herbicidal activity (percentage phytotoxicity) ALOMY POST
[18] = pre-emergence, 480 h, 250 g/ha, pre-emergence, 20 DAA, visual assessment (100%=total damage, 0%=no damage), read-out: Pre-emergence herbicidal activity (percentage phytotoxicity) ALOMY PRE
[19] = post-emergence, 360 h, 250 g/ha, post-emergence, 15 DAA, visual assessment (100%=total damage, 0%=no damage), read-out: Post-emergence herbicidal activity (percentage phytotoxicity) LOLPE POST
[20] = pre-emergence, 480 h, 250 g/ha, pre-emergence, 20 DAA, visual assessment (100%=total damage, 0%=no damage), read-out: Pre-emergence herbicidal activity (percentage phytotoxicity) LOLPE PRE
[21] = post-emergence, 360 h, 250 g/ha, post-emergence, 15 DAA, visual assessment (100%=total damage, 0%=no damage), read-out: Post-emergence herbicidal activity (percentage phytotoxicity) ECHCG POST
[22] = pre-emergence, 480 h, 250 g/ha, pre-emergence, 20 DAA, visual assessment (100%=total damage, 0%=no damage), read-out: Pre-emergence herbicidal activity (percentage phytotoxicity) ECHCG PRE
[23] = pre-emergence, 480 h, Rate 250 g/ha, pre-emergence, assessed visually 20 DAA, 100%=total damage, 0%=no damage, read-out: Pre-emergence herbicidal activity (percentage phytotoxicity) AVEFA PRE
[24] = pre-emergence, 480 h, Rate 250 g/ha, pre-emergence, assessed visually 20 DAA, 100%=total damage, 0%=no damage, read-out: Pre-emergence herbicidal activity (percentage phytotoxicity) ALOMY PRE
[25] = pre-emergence, 480 h, Rate 250 g/ha, pre-emergence, assessed visually 20 DAA, 100%=total damage, 0%=no damage, read-out: Pre-emergence herbicidal activity (percentage phytotoxicity) LOLPE PRE
[26] = pre-emergence, 480 h, Rate 250 g/ha, pre-emergence, assessed visually 20 DAA, 100%=total damage, 0%=no damage, read-out: Pre-emergence herbicidal activity (percentage phytotoxicity) ECHCG PRE

Structure (SMILES)	pest or weed control at 250 g/ha (Avena fatua (AVEFA); [3]) [%]	pest or weed control at 250 g/ha (Avena fatua (AVEFA); [4]) [%]	pest or weed control at 250 g/ha [1, 5] [%]	pest or weed control at 250 g/ha [1, 6] [%]	pest or weed control at 250 g/ha (Lolium perenne (LOLPE); [7]) [%]	pest or weed control at 250 g/ha (Lolium perenne (LOLPE); [8]) [%]	pest or weed control at 250 g/ha [2, 9] [%]	pest or weed control at 250 g/ha [2, 10] [%]	pest or weed control at 250 g/ha (Avena fatua (AVEFA); [11]) [%]	pest or weed control at 250 g/ha [1, 12] [%]	pest or weed control at 250 g/ha (Lolium perenne (LOLPE); [13]) [%]	pest or weed control at 250 g/ha [2, 14] [%]	further results
Cc1cc(-c2ncc(F)cn2)cc(C)c1C1C(=O)CC(CC(=O)NCc2cccc(F)c2)C1=O (stereo not drawn) [Compound B264]	100	80	100	100	100	90	100	100					
CCN(C)C(=O)CC1CC(=O)C(c2c(C)cc(-n3cc(Cl)cn3)cc2C)C1=O (stereo not drawn) [Compound B228]	100	90	100	100	100	100	100	90					
Cc1cnc(CNC(=O)CC2CC(=O)C(c3c(C)cc(-c4cncnc4)cc3C)C2=O)cn1 (stereo not drawn) [Compound A147]									20	20	0	60	
Cc1cc(-c2ncc(Cl)cc2F)cc(C)c1C1C(=O)CC(CC(=O)NCC2CC2)C1=O (stereo not drawn) [Compound B123]													pest or weed control at 250 g/ha (Avena fatua (AVEFA); [15]): 100%; pest or weed control at 250 g/ha (Avena fatua (AVEFA); [16]): 90%; pest or weed control at 250 g/ha [1, 17]: 100%; pest or weed control at 250 g/ha [1, 18]: 100%; pest or weed control at 250 g/ha (Lolium perenne (LOLPE); [19]): 100%; pest or weed control at 250 g/ha (Lolium perenne (LOLPE); [20]): 100%; pest or weed control at 250 g/ha [2, 21]: 100%; pest or weed control at 250 g/ha [2, 22]: 100%
Cc1cc(-c2ccc(Cl)nn2)cc(C)c1C1C(=O)CC(CC(=O)NCc2ncccc2Cl)C1=O (stereo not drawn) [Compound A155]									70	50	70	90	pest or weed control at 250 g/ha (Avena fatua (AVEFA); [23]): 100%; pest or weed control at 250 g/ha [1, 24]: 40%; pest or weed control at 250 g/ha (Lolium perenne (LOLPE); [25]): 70%; pest or weed control at 250 g/ha [2, 26]: 70%
Cc1cc(-c2ncc(F)cc2F)cc(C)c1C1C(=O)CC(CC(=O)NCc2ccc(F)c(F)c2)C1=O (stereo not drawn) [Compound B73]													pest or weed control at 250 g/ha (Avena fatua (AVEFA); [15]): 100%; pest or weed control at 250 g/ha (Avena fatua (AVEFA); [16]): 90%; pest or weed control at 250 g/ha [1, 17]: 100%; pest or weed control at 250 g/ha [1, 18]: 90%; pest or weed control at 250 g/ha (Lolium perenne (LOLPE); [19]): 100%; pest or weed control at 250 g/ha (Lolium perenne (LOLPE); [20]): 90%; pest or weed control at 250 g/ha [2, 21]: 100%; pest or weed control at 250 g/ha [2, 22]: 100%
C/C=C/c1cc(C)c(C2C(=O)CC(CC(=O)NC(C)C)C2=O)c(C)c1 (stereo not drawn) [Compound B245]	100	90	100	100	100	90	100	90					
C=CCCNC(=O)CC1CC(=O)C(c2c(C)cc(-c3ncc(Cl)cc3F)cc2C)C1=O (stereo not drawn) [Compound A111]									100	100	100	100	pest or weed control at 250 g/ha (Avena fatua (AVEFA); [23]): 90%; pest or weed control at 250 g/ha [1, 24]: 90%; pest or weed control at 250 g/ha (Lolium perenne (LOLPE); [25]): 100%; pest or weed control at 250 g/ha [2, 26]: 100%
